According to patent publication US4705803A, “Method of improving resorption of injected antibacterially active substances or combinations” (Boehringer Ingelheim Vetmedica GmbH, priority 1982, dated 1987):

Assays:
physchem = settings: water
[1] = test system: respiratory tract secretion; settings: cited from earlier work; for concentration of solids in the fluid of the respiratory tract / quantity of secretion / viscosity of the secretion: human and veterinary medicine; for specific weight: solids/fluid of the respiratory tract
[2] = acute toxicity (LD50) in the mouse; settings: in vivo, ip
Description: For example, the acute toxicity (LD50) in the mouse is […]

[3] = maximum solubility in water

SMILES | solubility (physchem) | concentration of solids in the fluid of the respiratory tract [1] | quantity of secretion [1] | viscosity of the secretion [1] | specific weight [1] | LD50 [2] | solubility [3]
Cl.Nc1c(Br)cc(Br)cc1CN[C@H]1CC[C@H](O)CC1 [Compound B, N-(2-amino,3,5-dibromo-benzyl)-trans-4-hydroxy-cyclohexylamine hydrochloride] | 16.6 mg/mL | reduction | significant increase | decrease | reduction | 268 mg/kg | 
CN(Cc1cc(Br)cc(Br)c1N)C1CCCCC1.Cl [Compound A, N-(2-amino-3,5-dibromo-benzyl)-N-methyl-cyclohexylamine hydrochloride] | 0.2 to 5 mg/mL | reduction | significant increase | decrease | reduction | > 400 mg/kg | 
Cl.Oc1c(Br)cc(Br)cc1CN[C@H]1CC[C@H](O)CC1 [Compound C, N-(3,5-dibromo-2-hydroxy-benzyl)-trans-4-hydroxycyclohexylamine hydrochloride] |  |  |  |  |  | > 800 mg/kg | 0.1 to 1 mg/mL
